Where two headings read alike, the source gives them in different places.
What was measured:
recombinant human p38α = recombinant human p38α (Homo sapiens, UniProt Q16539); experiment: Purified and activated recombinant human p38α HTRF assay; format: biochemical; settings: 1 nM p38α, 50 μM ATP, GST-ATF2 substrate, read-out: p38a IC50
Experimental: Purified and Activated Recombinant Human p38α Assay Kinase Reaction Buffer: […] HTRF Detection Buffer: […] Serial Dilution of Compounds: […] Columns 6 and 12 (HI controls and LO controls respectively) in the drug plate were reserved as controls and contained only DMSO. Kinase Reaction: […] See table below for actual concentrations. In the absence of substrate, the background was measured as LO control. […] Assay Reagent Concentrations: […] HTRF Detection: […] After 60 minutes incubation at room temperature, the assay plate was read in a Discovery Plate Reader. The wells were excited with coherent 320 nm light and the ratio of delayed ([…] post excitation) emissions at […] (native europium fluorescence) and 665 nm (europium fluorescence transferred to allophycocyanin-an index of substrate phosphorylation) was determined (Park et al, 1999). Data Analysis: […] Data (consisting of POC and inhibitor concentration in μM) was fitted to a 4-parameter equation ([…]))), where A is the minimum y (POC) value, B is the maximum y (POC), C is the x (compound concentration) at the point of inflection and D is the slope factor, using a Levenburg-Marquardt non-linear regression algorithm. The inhibition constant (Ki) of the inhibitor was estimated from the IC50 (compound concentration at the point of inflection C) using the Cheng-Prussof equation: […] All results were expressed as the mean±the standard error of the mean. Data acquisition and non-linear regression algorithms were performed using Activity Base v5.2 and XL-fit software v4.1 respectively. All data was archived using Activity Base v5.2 software.

[1] = test system: production of IL-1β, IL-6, and TNF-α by PBMC activated with LPS; experiment: Lipopolysaccharide-activated PBMC cytokine production assay; format: cell-based; settings: Homo sapiens, read-out: IC50 in PBMC cytokine production assay
Experimental: Lipopolysaccharide-Activated Pbmc Cytokine Production Assay
Test compounds were evaluated in vitro for the ability to inhibit the production of IL-1β, IL-6, and TNF-α by PBMC activated with bacterial lipopolysaccharide (LPS). Fresh leukocytes were obtained from a local blood bank, and peripheral blood mononuclear cells (PBMCs) were isolated by density gradient centrifugation on Ficol-Paque Plus (Pharmacia).
Preparation of Test Compound Stock Solutions
All reagents were prepared in RPMI 1640+10% v/v human AB serum+1× Pens/Strep/Glu (assay medium). Test compounds were dissolved in 100% DMSO and serially diluted in 96-well polypropylene round bottom micro titer plates (drug plate). Serial dilutions were then diluted 1:250 into assay medium to a 4× working concentration. Compound serial dilutions were half-log, 10 point titrations with a final starting concentration of 1 μM.
Treatment of Cells with Test Compounds and Activation with Lipopolysaccharide
LPS was prepared to a 4× concentration in assay medium. 100 μl of PBMC (1×10^6 cells/ml) were plated in a 96-well polystyrene flat bottom micro titer tissue culture plate and incubated with 50 μl of 4× compound serial dilution for 1 hour at 37° C., 5% CO2 in a tissue culture incubator. 50 μl 4×LPS or control was added and the plates were incubated at 37° C., 5% CO2 in a tissue culture incubator for 18 hours. The final DMSO concentration was 0.1%. The total volume was 200 μL. The final LPS concentration was 100 ng/mL. After 18 hours culture supernatants were removed and IL-1β, IL-6, and TNF-α presence in the supernatants was quantified using MSD ECL based technology.
20 μL of culture supernatant were added to MSD plates, and incubated for one hour at room temperature. 20 μL of detection antibody diluted in antibody diluent (1 μg/mL), and 110 μL of 2× Read Buffer P was added, and incubated for one hour at RT. Electrochemiluminescence was measured using the SECTOR HTS Imager (MSD, Gaithersburg, Md.).
Compound IC50 values were calculated as follows: The proportion of cytokine production in the presence of compound compared to the cytokine production in the presence of the DMSO vehicle alone (Hi control) was calculated using the formula: Percent Control (POC)=(compound−average Lo)/(average Hi−average Lo)*100.

[2] = test system: TNF-α production by LPS-activated THP1 cells; experiment: Lipopolysaccharide-activated THP1 cell TNF production assay; format: cell-based; settings: Homo sapiens, read-out: IC50 in THP-1 cellular TNF production assay
Experimental: Lipopolysaccharide-Activated THP1 Cell TNF Production Assay
THP1 cells were resuspended in fresh THP1 media (RPMI 1640, 10% heat-inactivated FBS, 1×PGS, 1×NEAA, plus 30 μM βME) at a concentration of 1.5×10^6 cells per mL. One hundred microliters of cells per well were plated in a polystyrene 96-well tissue culture plate. 1.5 micrograms per mL of bacterial LPS was prepared in THP1 media and transferred to the first 11 columns of a 96-well polypropylene plate. Column 12 contained only THP1 media for the LO control. Compounds were dissolved in 100% DMSO and serially diluted 3 fold in a polypropylene 96-well microtiter plate (drug plate). Columns 6 and 12 were reserved as controls (HI controls and LO controls respectively) and contained only DMSO. 10 μL of LPS followed by one microliter of inhibitor compound from the drug plate was transferred to the cell plate. The treated cells were induced to synthesize and secrete TNF-α in a 37° C. humidified incubator with 5% CO2 for 3 hours. Fifty microliters of conditioned media was transferred to a 96-well MULTI-ARRAY™ 96-well small spot plate—custom coated with MAB610 containing 100 μL of 2× Read Buffer P supplemented with 0.34 nM AF210NA polyclonal Ab labeled with ruthenium (MSD—Sulfo-TAG™—NHS ester). After an overnight incubation at room temperature with shaking, the reaction was read on the Sector Imager™ 6000. […] The amount of secreted TNF-α in the presence of test compounds compared with that in the presence of DMSO vehicle alone (HI control) was calculated using the formula: % control (POC)=(cpd−average LO)/(average HI−averageLO)*100. Data (consisting of POC and inhibitor concentration in μM) was fitted to a 4-parameter equation (y=A+((B−A)/(1+((x/C)^D))), where A is the minimum y (POC) value, B is the maximum y (POC), C is the x (cpd concentration) at the point of inflection and D is the slope factor) using a Levenburg-Marquardt non-linear regression algorithm.

[3] = THP-1, THP1 cells, LPS, 3 hours

Sequence of recombinant human p38α (Q16539 whole entry): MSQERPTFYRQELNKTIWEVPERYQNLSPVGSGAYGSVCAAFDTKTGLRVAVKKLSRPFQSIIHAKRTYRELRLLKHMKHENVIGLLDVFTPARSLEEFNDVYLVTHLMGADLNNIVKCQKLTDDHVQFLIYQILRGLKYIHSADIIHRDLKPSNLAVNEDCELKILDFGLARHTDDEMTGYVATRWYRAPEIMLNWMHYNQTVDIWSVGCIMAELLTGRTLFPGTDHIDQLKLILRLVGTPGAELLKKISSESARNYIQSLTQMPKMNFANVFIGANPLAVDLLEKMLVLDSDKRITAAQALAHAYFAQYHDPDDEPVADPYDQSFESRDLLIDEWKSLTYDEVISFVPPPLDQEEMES

IC50 (recombinant human p38α) | IC50 [2, 3] | Structure (SMILES) | IC50 ([1]; LPS 100 ng/mL, 18 hours) | IC50 ([1]; 18 h) | IC50 ([2]; THP-1, 3 h)
1.5 nM | ≤ 1000 nM | CCn1c(=O)c(-c2cc(C(=O)NC3CC3)ccc2C)cc2cnnc(-c3ccc(F)cc3F)c21 [Example 23, N-cyclopropyl-3-(8-(2,4-difluorophenyl)-1-ethyl-2-oxo-1,2-dihydropyrido[2,3-d]pyridazin-3-yl)-4-methylbenzamide] | ≤ 1000 nM |  | 
2.8 nM | ≤ 1000 nM | Cc1ccc(C(=O)NC2CC2)cc1-c1cc2cnnc(-c3ccc(F)cc3Cl)c2n(C)c1=O [Example 13, N-cyclopropyl-3-(8-(2-chloro-4-fluorophenyl)-1-methyl-2-oxo-1,2-dihydropyrido[3,2-d]pyridazin-3-yl)-4-methylbenzamide] | ≤ 1000 nM |  | 
2.5 nM | ≤ 1000 nM | Cc1ccc(C(=O)NC2CC2)cc1-c1cc2cnnc(-c3ccc(F)cc3C)c2n(C)c1=O [Example 12, N-cyclopropyl-3-(8-(4-fluoro-2-methylphenyl)-1-methyl-2-oxo-1,2-dihydropyrido[3,2-d]pyridazin-3-yl)-4-methylbenzamide] | ≤ 1000 nM |  | 
0.9 nM | ≤ 1000 nM | Cc1ccc(C(=O)Nc2ccon2)cc1-c1cc2cnnc(-c3ccccc3Cl)c2n(C)c1=O [Example 25, 3-(8-(2-chlorophenyl)-1-methyl-2-oxo-1,2-dihydropyrido[2,3-d]pyridazin-3-yl)-N-3-isoxazolyl-4-methylbenzamide] | ≤ 1000 nM |  | 
2 nM | ≤ 1000 nM | Cc1ccc(C(=O)NC2CC2)cc1-c1cc2cnnc(-c3ccc(C(F)(F)F)cc3F)c2n(C)c1=O [Example 9, N-cyclopropyl-3-(8-(2-fluoro-4-(trifluoromethyl)phenyl)-1-methyl-2-oxo-1,2-dihydropyrido[3,2-d]pyridazin-3-yl)-4-methylbenzamide] | ≤ 1000 nM |  | 
3 nM | ≤ 1000 nM | Cc1cc(F)ccc1-c1nncc2cc(-c3cc(C(=O)NC4CC4)cc(F)c3C)c(=O)n(C)c12 [Example 16, N-cyclopropyl-3-fluoro-5-(8-(4-fluoro-2-methylphenyl)-1-methyl-2-oxo-1,2-dihydropyrido[2,3-d]pyridazin-3-yl)-4-methylbenzamide] | ≤ 1000 nM |  | 
2.9 nM | ≤ 1000 nM | Cc1ccc(C(=O)NC2CC2)cc1-c1cc2cnnc(-c3ccccc3C(F)(F)F)c2n(C)c1=O [Example 10, N-cyclopropyl-4-methyl-3-(1-methyl-2-oxo-8-(2-(trifluoromethyl)phenyl)-1,2-dihydropyrido[3,2-d]pyridazin-3-yl)benzamide] | ≤ 1000 nM |  | 

Further lines, the compound ahead of its results:

Structure (SMILES) | IC50 (recombinant human p38α) | IC50 [2, 3] | IC50 ([1]; LPS 100 ng/mL, 18 hours) | IC50 ([1]; 18 h) | IC50 ([2]; THP-1, 3 h)
Cc1ccc(C(=O)NC2CC2)cc1-c1cc2cnnc(-c3ccccc3Cl)c2n(C)c1=O [Example 8, 3-(8-(2-chlorophenyl)-1-methyl-2-oxo-1,2-dihydropyrido[3,2-d]pyridazin-3-yl)-N-cyclopropyl-4-methylbenzamide] | 1.6 nM |  |  | ≤ 1000 nM | ≤ 1000 nM
Cc1ccc(C(=O)Nc2ccon2)cc1-c1cc2cnnc(-c3ccc(F)cc3Cl)c2n(C)c1=O [Example 21, 3-(8-(2-chloro-4-fluorophenyl)-1-methyl-2-oxo-1,2-dihydropyrido[2,3-d]pyridazin-3-yl)-N-3-isoxazolyl-4-methylbenzamide] | 0.8 nM | ≤ 1000 nM | ≤ 1000 nM |  | 
Cc1ccccc1-c1nncc2cc(-c3cc(C(=O)NC4CC4)cc(F)c3C)c(=O)n(C)c12 [Example 7, N-cyclopropyl-3-fluoro-4-methyl-5-(1-methyl-2-oxo-8-o-tolyl-1,2-dihydropyrido[3,2-d]pyridazin-3-yl)benzamide] | 1.5 nM |  |  | ≤ 1000 nM | ≤ 1000 nM
Cc1ccc(C(N)=O)cc1-c1cc2cnnc(-c3ccc(F)cc3F)c2n(C)c1=O [Example 2, 3-(8-(2,4-difluorophenyl)-1-methyl-2-oxo-1,2-dihydropyrido[3,2-d]pyridazin-3-yl)-4-methylbenzamide] | 3 nM |  |  | ≤ 1000 nM | ≤ 1000 nM
Cc1c(F)cc(C(=O)NC2CC2)cc1-c1cc2cnnc(-c3cc(F)ccc3Cl)c2n(C)c1=O [Example 19, 3-(8-(2-chloro-5-fluorophenyl)-1-methyl-2-oxo-1,2-dihydropyrido[2,3-d]pyridazin-3-yl)-N-cyclopropyl-5-fluoro-4-methylbenzamide] | 1.6 nM | ≤ 1000 nM | ≤ 1000 nM |  | 
Cc1c(F)cc(C(=O)NC2CC2)cc1-c1cc2cnnc(-c3ccc(F)cc3Cl)c2n(C)c1=O [Example 17, 3-(8-(2-chloro-4-fluorophenyl)-1-methyl-2-oxo-1,2-dihydropyrido[2,3-d]pyridazin-3-yl)-N-cyclopropyl-5-fluoro-4-methylbenzamide] | 1.8 nM | ≤ 1000 nM | ≤ 1000 nM |  | 
Cn1c(=O)c(-c2cc(C(=O)NC3CC3)ccc2Cl)cc2cnnc(-c3ccc(F)cc3F)c21 [Example 5, 4-chloro-N-cyclopropyl-3-(8-(2,4-difluorophenyl)-1-methyl-2-oxo-1,2-dihydropyrido[3,2-d]pyridazin-3-yl)benzamide] | 1.6 nM |  |  | ≤ 1000 nM | ≤ 1000 nM
Cc1ccc(C(=O)NC2CC2)cc1-c1cc2cnnc(-c3ccccc3C)c2n(C)c1=O [Example 6, N-cyclopropyl-4-methyl-3-(1-methyl-2-oxo-8-o-tolyl-1,2-dihydropyrido[3,2-d]pyridazin-3-yl)benzamide] | 11.4 nM |  |  | ≤ 1000 nM | ≤ 1000 nM
CCn1c(=O)c(-c2cc(C(=O)NC3CC3)cc(F)c2C)cc2cnnc(-c3ccc(F)cc3F)c21 [Example 22, N-cyclopropyl-3-(8-(2,4-difluorophenyl)-1-ethyl-2-oxo-1,2-dihydropyrido[2,3-d]pyridazin-3-yl)-5-fluoro-4-methylbenzamide] | 1.3 nM | ≤ 1000 nM | ≤ 1000 nM |  | 

From patent publication US8455495B2, “Pyridazino-pyridinone compounds and methods of use” (Amgen Inc., priority 2008, dated 2013)
